Experimental data taken from patent US11458123B2 (Arvinas, Inc., priority 2016, dated 2022).

Each molecule was assayed on tau protein (assay: Tau protein in vitro degradation assay (Western blot, Tau-13 antibody)). Settings: SK-N-SH cells; 72 hours of incubation; tested at 300 nM, 100 nM, 33 nM and 11 nM; Western blot, Tau-13 antibody.
Type: cell-based, human
Summary of the method: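 SK-N-SH cells, seeded ≥18 h beforehand, were incubated 72 h with tau PROTACs at 1000, 300 and 100 nM or at 300, 100, 33 and 11 nM. Lysates in protease-inhibitor buffer were resolved by SDS-PAGE; tau quantified by Western blot with Tau-13 antibody recognising all human tau forms.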
O=C1CCC(N2C(=O)c3ccc(OCCOCCOCCOCCOCCOc4ccc(-c5ccc6c(c5)[nH]c5ccncc56)cn4)cc3C2=O)C(=O)N1 (centres unmarked) [Compound 51, 5-((14-((5-(5H-pyrido[4,3-b]indol-7-yl)pyridin-2-yl)oxy)-3,6,9,12-tetraoxatetradecyl)oxy)-2-(2,6-dioxopiperidin-3-yl)isoindoline-1,3-dione] was tested, and the “Degradation activity* (highest amount of degradation observed at any dosage; tau protein remaining)” value was “A (≤50% tau protein remaining after 72 hours of incubation with the test compound)”.
For O=C1CCC(N2C(=O)c3ccc(OCCCCCN4CCN(CCOCCCc5ccc(-c6ccc7c(c6)[nH]c6ccncc67)cn5)CC4)cc3C2=O)C(=O)N1 (centres unmarked) [Compound 52, 5-((5-(4-(2-(3-(5-(5H-pyrido[4,3-b]indol-7-yl)pyridin-2-yl)propoxy)ethyl)piperazin-1-yl)pentyl)oxy)-2-(2,6-dioxopiperidin-3-yl)isoindoline-1,3-dione], the “Degradation activity* (highest amount of degradation observed at any dosage; tau protein remaining)” value was “C (>80% tau protein remaining after 72 hours of incubation with the test compound)”.
In the case of O=C1CCC(N2C(=O)c3ccc(N4CCN(CCCO[C@H]5C[C@@H](Oc6ccc(-c7ccc8c(c7)[nH]c7ccncc78)cn6)C5)CC4)cc3C2=O)C(=O)N1 (some centres unmarked) [Compound 53, 5-(4-(3-((1s,3s)-3-((5-(5H-pyrido[4,3-b]indol-7-yl)pyridin-2-yl)oxy)cyclobutoxy)propyl)piperazin-1-yl)-2-(2,6-dioxopiperidin-3-yl)isoindoline-1,3-dione], the “Degradation activity* (highest amount of degradation observed at any dosage; tau protein remaining)” value is reported as “C (>80% tau protein remaining after 72 hours of incubation with the test compound)”.
With O=C1CCC(N2C(=O)c3ccc(OCCCCCN4CCN(CCCc5ccc(-c6ccc7c(c6)[nH]c6ccncc67)cn5)CC4)cc3C2=O)C(=O)N1 (centres unmarked) [Compound 54, 5-((5-(4-(3-(5-(5H-pyrido[4,3-b]indol-7-yl)pyridin-2-yl)propyl)piperazin-1-yl)pentyl)oxy)-2-(2,6-dioxopiperidin-3-yl)isoindoline-1,3-dione] the “Degradation activity* (highest amount of degradation observed at any dosage; tau protein remaining)” value was “C (>80% tau protein remaining after 72 hours of incubation with the test compound)”.
In the case of O=C1CCC(N2C(=O)c3ccc(OCCCc4ccc(N5CCN(CCCc6ccc(-c7ccc8c(c7)[nH]c7ccncc78)cn6)CC5)nc4)cc3C2=O)C(=O)N1 (centres unmarked) [Compound 55, 5-(3-(6-(4-(3-(5-(5H-pyrido[4,3-b]indol-7-yl)pyridin-2-yl)propyl)piperazin-1-yl)pyridin-3-yl)propoxy)-2-(2,6-dioxopiperidin-3-yl)isoindoline-1,3-dione], the “Degradation activity* (highest amount of degradation observed at any dosage; tau protein remaining)” value is reported as “C (>80% tau protein remaining after 72 hours of incubation with the test compound)”.
For O=C1CCC(N2C(=O)c3ccc(OCCCCCN4CCN(CCO[C@H]5C[C@@H](Oc6ccc(-c7ccc8c(c7)[nH]c7ccncc78)cn6)C5)CC4)cc3C2=O)C(=O)N1 (some centres unmarked) [Compound 56, 5-((5-(4-(2-((1 s,3 s)-3-((5-(5H-pyrido[4,3-b]indol-7-yl)pyridin-2-yl)oxy)cyclobutoxy)ethyl)piperazin-1-yl)pentyl)oxy)-2-(2,6-dioxopiperidin-3-yl)isoindoline-1,3-dione], the “Degradation activity* (highest amount of degradation observed at any dosage; tau protein remaining)” value was “C (>80% tau protein remaining after 72 hours of incubation with the test compound)”.
O=C1CCC(N2C(=O)c3ccc(OCCOCCOCCOCCOCCN4CCC(c5ccc6c(c5)[nH]c5ccncc56)CC4)cc3C2=O)C(=O)N1 (centres unmarked) [Compound 57, 5-((14-(4-(5H-pyrido[4,3-b]indol-7-yl)piperidin-1-yl)-3,6,9,12-tetraoxatetradecyl)oxy)-2-(2,6-dioxopiperidin-3-yl)isoindoline-1,3-dione] was tested, and the “Degradation activity* (highest amount of degradation observed at any dosage; tau protein remaining)” value was “C (>80% tau protein remaining after 72 hours of incubation with the test compound)”.
For O=C1CCC(N2C(=O)c3ccc(OCCCCCOCCN4CCN(CCCc5ccc(-c6ccc7c(c6)[nH]c6ccncc67)cn5)CC4)cc3C2=O)C(=O)N1 (centres unmarked) [Compound 58, 5-((5-(2-(4-(3-(5-(5H-pyrido[4,3-b]indol-7-yl)pyridin-2-yl)propyl)piperazin-1-yl)ethoxy)pentyl)oxy)-2-(2,6-dioxopiperidin-3-yl)isoindoline-1,3-dione], the “Degradation activity* (highest amount of degradation observed at any dosage; tau protein remaining)” value was “C (>80% tau protein remaining after 72 hours of incubation with the test compound)”.

Same assay, conditions: SK-N-SH cells; 72 hours of incubation; tested at 1000 nM, 300 nM and 100 nM
For CN(C)c1ccc(-c2ccc3cc(OCC(O)COCCOCCOCCOCCNc4cccc5c4C(=O)N(C4CCC(=O)NC4=O)C5=O)ccc3n2)cc1 (centres unmarked) [Compound 45, 4-(15-(2-(4-(dimethylamino)phenyl)quinolin-6-yloxy)-14-hydroxy-3,6,9,12-tetraoxapentadecylamino)-2-(2,6-dioxopiperidin-3-yl)isoindoline-1,3-dione], the “Activity* (highest amount of degradation observed at any dosage, as tau protein remaining)” value was “C (>80% tau protein remaining after 72 hours of incubation with the test compound)”.
With Cc1ncsc1-c1ccc(CNC(=O)[C@@H]2C[C@@H](O)CN2C(=O)[C@@H](NC(=O)COCCOCCOCCOCC(O)COc2ccc3nc(-c4ccc(N(C)C)cc4)ccc3c2)C(C)(C)C)cc1 (stereo partly drawn) [Compound 46, (2S,4R)-1-((2S)-2-tert-butyl-18-(2-(4-(dimethylamino)phenyl)quinolin-6-yloxy)-17-hydroxy-4-oxo-6,9,12,15-tetraoxa-3-azaoctadecane)-4-hydroxy-N-(4-(4-methylthiazol-5-yl)benzyl)pyrrolidine-2-carboxamide] the “Activity* (highest amount of degradation observed at any dosage, as tau protein remaining)” value was “C (>80% tau protein remaining after 72 hours of incubation with the test compound)”.
For CN(C)c1ccc(-c2ccc3cc(OCC(O)COCCOCCOCCNc4cccc5c4C(=O)N(C4CCC(=O)NC4=O)C5=O)ccc3n2)cc1 (centres unmarked) [Compound 47, 4-(2-(2-(2-(3-(2-(4-(dimethylamino)phenyl)quinolin-6-yloxy)-2-hydroxypropoxy)ethoxy)ethoxy)ethylamino)-2-(2,6-dioxopiperidin-3-yl)isodoline-1,3-dione], the “Activity* (highest amount of degradation observed at any dosage, as tau protein remaining)” value was “C (>80% tau protein remaining after 72 hours of incubation with the test compound)”.
With Cn1c2ccncc2c2ccc(-c3ccc(OCCOCCOCCOCCOCCNc4cccc5c4C(=O)N(C4CCC(=O)NC4=O)C5=O)nc3)cc21 (centres unmarked) [Compound 48, 2-(2,6-dioxopiperidin-3-yl)-4-(14-(5-(5-methyl-5H-pyrido[4,3-b]indol-7-yl)pyridin-2-yloxy)-3,6,9,12-tetraoxatetradecylamino)isoindoline-1,3-dione] the “Activity* (highest amount of degradation observed at any dosage, as tau protein remaining)” value was “A (≤50% tau protein remaining after 72 hours of incubation with the test compound)”.
With O=C1CCC(N2Cc3c(NCCOCCOCCOCCOCCOc4ccc(-c5ccc6c(c5)[nH]c5ccncc56)cn4)cccc3C2=O)C(=O)N1 (centres unmarked) [Compound 49, 3-(4-((14-((5-(5H-pyrido[4,3-b]indol-7-yl)pyridin-2-yl)oxy)-3,6,9,12-tetraoxatetradecyl)amino)-1-oxoisoindolin-2-yl)piperidine-2,6-dione] the “Activity* (highest amount of degradation observed at any dosage, as tau protein remaining)” value was “A (≤50% tau protein remaining after 72 hours of incubation with the test compound)”.
In the case of O=C1CCC(N2Cc3c(OCCOCCOCCOCCOCCOc4ccc(-c5ccc6c(c5)[nH]c5ccncc56)cn4)cccc3C2=O)C(=O)N1 (centres unmarked) [Compound 50, 3-(4-(14-(5-(5H-pyrido[4,3-b]indol-7-yl)pyridin-2-yloxy)-3,6,9,12-tetraoxatetradecyloxy)-1-oxoisoindolin-2-yl)piperidine-2,6-dione], the “Activity* (highest amount of degradation observed at any dosage, as tau protein remaining)” value is reported as “A (≤50% tau protein remaining after 72 hours of incubation with the test compound)”.
